Experimental data as given in US12617765B2, “Cannabinoid derivatives” (CANOPY GROWTH CORPORATION, priority 2019, dated 2026).
Like-named read-outs stand apart in the source and are kept apart here.

What was measured:
[1] = molecular target: T1, human CB1 receptor (Homo sapiens, UniProt P21554); test: CB1 radioligand competitive binding assay ([3H]CP 55,940 displacement)
T1 construct: host or cells: CHO-K1

[2] = molecular target: T2, human CB2 receptor (Homo sapiens, UniProt P34972); test: CB2 radioligand competitive binding assay ([3H]CP 55,940 displacement); details: for Selectivity CB2: fold difference in selectivity between CB1 and CB2 binding, in the column of the receptor with the higher binding affinity
T2 construct: host or cells: CHO-K1
Method: Compounds of the present disclosure were tested for CB1 receptor binding affinity and for CB2 receptor binding affinity. As used herein, “binding affinity” is represented by the IC50 value, which was experimentally determined as described herein. The lower the IC50 value the higher the binding affinity. A compound of the present disclosure may be said to have “binding selectivity” if it has a higher binding affinity for one receptor compared to the other.
The membranes were prepared from CHO-K1 (Chinese hamster ovary) cells stably transfected with the human CB2 receptor (Cat. #ES-111-C; Perkin Elmer, Boston, Mass.). The cells were grown adherently and maintained in Ham's F12 medium containing 10% fetal bovine serum (FBS), penicillin, streptomycin and geneticin (G418) at 37° C. in a humid atmosphere of 5% CO2 following the manufacturer's instructions.
For membrane preparation the cells were washed with PBS and scraped off the plates in cold homogenization buffer (25 mM HEPES (pH 7.4), 2 mM EDTA) containing protease inhibitor cocktail (Sigma Cat. #P8340). The cell suspension was homogenized with a Pro-PK-01200D Polytron Homogenizer (Pro Scientific) and then centrifuged for 30 min at 120,000×g. The supernatant was discarded and the pellet was re-suspended in the homogenization buffer and stored at −80° C. until the time of use.
In this experiment, 3H radiolabeled CP 55,940, i.e. [3H]CP 55,940 (Perkin Elmer, Boston, Mass.), was used as a radioligand for the CB2 receptor to determine the binding affinity of compounds for the CB2 receptor (Scheme 5; above).
The competition binding experiments (single dose and dose-response) were performed by incubating 0.6 nM of [3H]CP55,940 (specific activity 101 Ci/mmol, Perkin Elmer) and different concentrations of compounds disclosed herein with membranes prepared as above from CHO-K1 cells expressing human CB2 receptor (1 μg of protein/well), 50 mM Tris-HCl (pH 7.4), 5 mM MgCl2, 1 mM CaCl2, and 2 mg/mL BSA.
For the single dose experiments, the compound stocks (usually 10 mM in DMSO) were diluted to working stocks in the binding buffer to give the final compound concentrations of 10 μM and 1 μM. For the dose-response experiments the test compounds were sequentially diluted to provide the desired concentration range for the IC50 determination. In each case the compounds were pre-incubated with the membrane for 20 min, before adding the radioligand.
After incubation with the radioligand for 60 min at 37° C., the incubation was terminated by rapid filtration of assay mixture through MultiScreen®HTS+96-well filter plates (Millipore, Cat. #MSFCNXB), pre-soaked for 60 min with 50 mM Tris-HCl (pH 7.4) containing 0.33% polyethylenimine (PEI). The nonspecific binding (NSB) was determined in the presence of 10 μM unlabelled CP55,940. After drying the filter plate at 50° C. for at least 60 min, the filter-bound radioactivity was determined by scintillation spectrometry using the 1450 MicroBeta Plate Counter (Perkin Elmer, Boston, Mass.). From the dose-response experiments, the IC50 values were determined (see Table 1, CB2 IC50).

[3] = 0.8 nM [3H]CP 55,940, membranes of CHO-K1 cells expressing human CB1 receptor, read-out: CB1 IC50
[4] = 0.6 nM [3H]CP55,940, membranes of CHO-K1 cells expressing human CB2 receptor, read-out: CB2 IC50

T1 sequence (P21554 whole entry): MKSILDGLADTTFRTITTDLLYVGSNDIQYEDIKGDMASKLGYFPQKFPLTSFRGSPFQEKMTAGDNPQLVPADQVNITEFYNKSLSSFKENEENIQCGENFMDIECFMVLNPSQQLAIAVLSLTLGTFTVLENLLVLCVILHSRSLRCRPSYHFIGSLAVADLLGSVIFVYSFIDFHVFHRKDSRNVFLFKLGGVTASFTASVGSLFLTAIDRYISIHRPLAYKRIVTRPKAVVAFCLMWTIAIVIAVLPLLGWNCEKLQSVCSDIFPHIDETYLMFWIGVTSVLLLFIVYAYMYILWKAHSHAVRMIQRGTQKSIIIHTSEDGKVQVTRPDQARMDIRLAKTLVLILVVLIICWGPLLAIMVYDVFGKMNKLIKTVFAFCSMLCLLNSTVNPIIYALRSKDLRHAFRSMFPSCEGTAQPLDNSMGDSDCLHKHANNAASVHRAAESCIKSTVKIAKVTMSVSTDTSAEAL
T2 sequence (P34972 whole entry): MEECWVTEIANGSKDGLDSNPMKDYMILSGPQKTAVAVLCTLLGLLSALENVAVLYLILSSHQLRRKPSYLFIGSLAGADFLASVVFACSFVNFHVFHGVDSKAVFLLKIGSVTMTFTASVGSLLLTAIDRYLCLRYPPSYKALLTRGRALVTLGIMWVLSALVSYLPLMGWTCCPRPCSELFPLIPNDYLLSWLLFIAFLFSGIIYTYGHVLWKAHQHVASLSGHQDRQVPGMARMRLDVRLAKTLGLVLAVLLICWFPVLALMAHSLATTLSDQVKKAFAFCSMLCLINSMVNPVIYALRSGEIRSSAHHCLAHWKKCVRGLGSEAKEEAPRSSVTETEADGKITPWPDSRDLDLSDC

Structure (SMILES): CCCCCc1cc(O)c(C/C=C(\C)CCC=C(C)C)c2c1C(=O)OC(CC(C)=O)(c1ccc(OC)cc1)O2 (stereo not drawn) [Compound 17, 8-(3,7-dimethylocta-2,6-dien-1-yl)-7-hydroxy-2-(4-methoxyphenyl)-2-(2-oxopropyl)-5-pentyl-4H-benzo[d][1,3]dioxin-4-one]
- IC50 [1, 3]: 2500 to 4990 nM
- IC50 [2, 4]: < 1000 nM
- Selectivity CB2 [2]: 5.45 fold

Structure (SMILES): CCCCCc1cc(O)c(C/C=C(\C)CCC=C(C)C)c2c1C(=O)OC(CC(C)=O)(c1ccccc1)O2 (stereo not drawn) [Compound 12, 8-(3,7-dimethylocta-2,6-dien-1-yl)-7-hydroxy-2-(2-oxopropyl)-5-pentyl-2-phenyl-4H-benzo[d][1,3]dioxin-4-one]
- IC50 [1]: 2500 to 4990 nM
- IC50 [2]: < 1000 nM
- Selectivity CB2 [2]: 4.31 fold

Structure (SMILES): CCCCCc1cc(O)c(C/C=C(\C)CCC=C(C)C)c2c1C(=O)OC(c1ccccc1)O2 (stereo not drawn) [Compound 3, 8-(3,7-dimethylocta-2,6-dien-1-yl)-7-hydroxy-5-pentyl-2-phenyl-4H-benzo[d][1,3]dioxin-4-one]
- IC50 [1]: 1000 to 2490 nM
- IC50 [2]: 1000 to 2490 nM
- Selectivity CB2 [2]: 1.19 fold

Structure (SMILES): CCCCCc1cc(O)c(C/C=C(\C)CCC=C(C)C)c2c1C(=O)OCO2 [Compound 1, 8-(3,7-dimethylocta-2,6-dien-1-yl)-7-hydroxy-5-pentyl-4H-benzo[d][1,3]dioxin-4-one]
- IC50 [1, 3]: > 5000 nM
- IC50 [2, 4]: 1000 to 2490 nM
- Selectivity CB2 [2]: 4.07 fold

Structure (SMILES): CCCCCc1cc(O)c(C/C=C(\C)CCC=C(C)C)c2c1C(=O)OC(CC(C)=O)O2 (stereo not drawn) [Compound 14, 8-(3,7-dimethylocta-2,6-dien-1-yl)-7-hydroxy-2-(2-oxopropyl)-5-pentyl-4H-benzo[d][1,3]dioxin-4-one]
- IC50 [1, 3]: 2500 to 4990 nM
- IC50 [2, 4]: 1000 to 2490 nM
- Selectivity CB2 [2]: 2.64 fold

Structure (SMILES): CCCCCc1cc(O)c(C/C=C(\C)CCC=C(C)C)c2c1C(=O)OC(C)(COC)O2 (stereo not drawn) [Compound 11, 8-(3,7-dimethylocta-2,6-dien-1-yl)-7-hydroxy-2-(methoxymethyl)-2-methyl-5-pentyl-4H-benzo[d][1,3]dioxin-4-one]
- IC50 [1]: 2500 to 4990 nM
- IC50 [2]: < 1000 nM
- Selectivity CB2 [2]: 4.46 fold

Structure (SMILES): CCCc1cc(O)c(C/C=C(\C)CCC=C(C)C)c2c1C(=O)OCO2 [Compound 18, 8-(3,7-dimethylocta-2,6-dien-1-yl)-7-hydroxy-5-propyl-4H-benzo[d][1,3]dioxin-4-one]
- IC50 [1]: > 5000 nM
- IC50 [2]: 1000 to 2490 nM
- Selectivity CB2 [2]: 3.88 fold

Structure (SMILES): CCCc1cc(O)c(C/C=C(\C)CCC=C(C)C)c2c1C(=O)OC(c1ccccc1)O2 (stereo not drawn) [Compound 19, 8-(3,7-dimethylocta-2,6-dien-1-yl)-7-hydroxy-2-phenyl-5-propyl-4H-benzo[d][1,3]dioxin-4-one]
- IC50 [1]: > 5000 nM
- IC50 [2]: 1000 to 2490 nM
- Selectivity CB2 [2]: 3.92 fold

Structure (SMILES): CCCCCc1cc(O)c(C/C=C(\C)CCC=C(C)C)c2c1C(=O)OC(CC)O2 (stereo not drawn) [Compound 16, 8-(3,7-dimethylocta-2,6-dien-1-yl)-2-ethyl-7-hydroxy-5-pentyl-4H-benzo[d][1,3]dioxin-4-one]
- IC50 [1, 3]: 2500 to 4990 nM
- IC50 [2, 4]: 1000 to 2490 nM
- Selectivity CB2 [2]: 2.04 fold
